Experiments:
Test in all cases: relative viability (nuclei count vs DMSO), 5 days (fraction); higher = more cells survive
Doramapimod + Phenformin = compound: Cc1ccc(-n2nc(C(C)(C)C)cc2NC(=O)Nc2ccc(OCCN3CCOCC3)c3ccccc23)cc1 [Doramapimod] + N=C(N)NC(=N)NCCc1ccccc1 [Phenformin] (partner 250 µM)
How it was run: (§1)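 Medians of duplicate plates are given as relative viability. That measure is the nuclei count in treated wells divided by the count in vehicle wells. Counts were taken on 4× images of lung cancer cell lines in 1536-well plates, 5 days after pin-tool dosing the day after seeding with one drug alone or a fixed anchor-drug dose plus five library-drug doses (not always all listed) in √10 steps.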

RAF265 + Trametinib = compound: Cn1c(Nc2ccc(C(F)(F)F)cc2)nc2cc(Oc3ccnc(-c4ncc(C(F)(F)F)[nH]4)c3)ccc21 [RAF265] + CC(=O)Nc1cccc(-n2c(=O)n(C3CC3)c(=O)c3c(Nc4ccc(I)cc4F)n(C)c(=O)c(C)c32)c1 [Trametinib] (partner 0.02 µM)
How it was run: as §1

Doramapimod + Decitabine = compound: Cc1ccc(-n2nc(C(C)(C)C)cc2NC(=O)Nc2ccc(OCCN3CCOCC3)c3ccccc23)cc1 [Doramapimod] + Nc1ncn([C@H]2C[C@H](O)[C@@H](CO)O2)c(=O)n1 [Decitabine] (partner 2 µM)
How it was run: as §1

IPA-3 + Luminespib = compound: C1=CC=C2C(=C1)C=CC(=C2SSC3=C(C=CC4=CC=CC=C43)O)O [IPA-3] + CCNC(=O)c1noc(-c2cc(C(C)C)c(O)cc2O)c1-c1ccc(CN2CCOCC2)cc1 [Luminespib] (partner 0.01 µM)
How it was run: as §1

## UMC-11
Doramapimod + Phenformin; first compound 0.02 µM
  relative viability: 0.319
Doramapimod + Phenformin; first compound 0.06325 µM
  relative viability: 0.32
Doramapimod + Phenformin; first compound 0.2 µM
  relative viability: 0.339
Doramapimod + Phenformin; first compound 0.6325 µM
  relative viability: 0.368
Doramapimod + Phenformin; first compound 2 µM
  relative viability: 0.309
RAF265 + Trametinib; first compound 0.01 µM
  relative viability: 0.749
RAF265 + Trametinib; first compound 0.03162 µM
  relative viability: 0.634
RAF265 + Trametinib; first compound 0.1 µM
  relative viability: 0.748
RAF265 + Trametinib; first compound 0.3162 µM
  relative viability: 0.855
RAF265 + Trametinib; first compound 1 µM
  relative viability: 0.649
Doramapimod + Decitabine; first compound 0.02 µM
  relative viability: 0.65
Doramapimod + Decitabine; first compound 0.06325 µM
  relative viability: 0.584
Doramapimod + Decitabine; first compound 0.2 µM
  relative viability: 0.646
Doramapimod + Decitabine; first compound 0.6325 µM
  relative viability: 0.723
Doramapimod + Decitabine; first compound 2 µM
  relative viability: 0.419
IPA-3 + Luminespib; first compound 0.2 µM
  relative viability: 1.12
IPA-3 + Luminespib; first compound 0.6325 µM
  relative viability: 0.94
IPA-3 + Luminespib; first compound 2 µM
  relative viability: 1.05
IPA-3 + Luminespib; first compound 6.325 µM
  relative viability: 1.06
IPA-3 + Luminespib; first compound 20 µM
  relative viability: 1.53

— the supplement of paper PMC10307832
